Measurements: patent US20260285853A1, “COMPOUNDS AND METHODS FOR MODULATING SPLICING” (REMIX THERAPEUTICS INC., priority 2023, published 2026)
Read-outs that look alike come from different tables or passages of the source.

How the values were obtained:
Format in all cases: cell-based
MYB mRNA [1] = experiment: Gene panel canonical junction qPCR assay, decrease in CJ mRNA, Table 3
How it was run: (§1)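 A673 (DMEM, 10% FBS, 15,000 cells/well) or K562 (IMDM, 10% FBS) cells treated 24 h at 37 °C with 11-point 3-fold dilutions, top 10 uM, DMSO ≤0.25%. Canonical exon-exon junction mRNA measured by RT-qPCR, normalized to GAPDH, GUSB or PPIA and DMSO (ΔΔCt); IC50 from 4-parameter logistic fit.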

HTT mRNA [2] = experiment: as above
How it was run: as §1

[3] = tested on: SH-SY5Y (human neuroblastoma) cells; experiment: Cell viability, Cell Titer Glo 2.0 assay; conditions: read-out: Viability SHSY5Y.3 GI50
How it was run: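 Toxicity screen in SH-SY5Y cells. Compounds were serially diluted in DMSO and then in medium, giving 0.1% DMSO final. Viability was read with CellTiter-Glo 2.0 after 72 h at 37 °C, 5% CO2, against medium-only blank wells.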

HTT mRNA [4] = experiment: Splicing RT-qPCR assay (THP), Table 2A
MYB mRNA [5] = experiment: Splicing RT-qPCR assay (THP), Table 2A
[6] = decrease in canonical junction (CJ) mRNA, gene panel qPCR, Table 3
[7] = Table 2A (THP), AJ mRNA increase, read-out: HTT AJ (increase in alternative junction mRNA, AC50)
[8] = Table 2A (THP), CJ mRNA decrease, read-out: HTT CJ (decrease in canonical junction mRNA, IC50)
[9] = Table 2A (THP), AJ mRNA increase, read-out: MYB AJ (increase in alternative junction mRNA, AC50)
[10] = Table 2A (THP), CJ mRNA decrease, read-out: MYB CJ (decrease in canonical junction mRNA, IC50)
[11] = Table 2A, THP, HTT alternative junction (AJ) mRNA, read-out: HTT AJ (AC50, increase in alternative junction mRNA)
[12] = Table 2A, THP, HTT canonical junction (CJ) mRNA, read-out: HTT CJ (IC50, decrease in canonical junction mRNA)
[13] = Table 2A, THP, MYB alternative junction (AJ) mRNA, read-out: MYB AJ (AC50, increase in alternative junction mRNA)
[14] = Table 2A, THP, MYB canonical junction (CJ) mRNA, read-out: MYB CJ (IC50, decrease in canonical junction mRNA)
[15] = decrease in CJ mRNA levels, canonical junction qPCR, gene panel

Row | Compound | IC50 (MYB mRNA [1]; [6]) [µM] | IC50 (HTT mRNA [2]; [6]) [µM] | GI50 [3] [µM] | AC50 (HTT mRNA [4]; [7]) [µM] | IC50 (HTT mRNA [4]; [8]) [µM] | AC50 (MYB mRNA [5]; [9]) [µM] | IC50 (MYB mRNA [5]; [10]) [µM] | AC50 (HTT mRNA [4]; [11]) [µM] | IC50 (HTT mRNA [4]; [12]) [µM] | AC50 (MYB mRNA [5]; [13]) [µM] | IC50 (MYB mRNA [5]; [14]) [µM] | IC50 (MYB mRNA [1]; [15]) [µM] | IC50 (HTT mRNA [2]; [15]) [µM]
1 | CNC1CCN(c2ccc(C(=O)Nc3cn4cc(C)nc(C)c4c3F)c3nn(C)cc23)CC1 [Compound 581, N-(8-fluoro-1,3-dimethyl-pyrrolo[1,2-a]-pyrazin-7-yl)-2-methyl-4-[4-(methylamino)-1-piperidyl]indazole-7-carboxamide] | 1 to 10 | > 10 | 1 to 10 | > 10 | > 10 | 1 to 10 | 1 to 10 | – | – | – | – | – | –
2 | Cc1cc2[nH]c(NC(=O)c3ccc(N4CCC(NC5CC5)CC4)c4cn(C)nc34)nc2c(C)n1 [Compound 582, 4-[4-(cyclopropylamino)-1-piperidyl]-N-(4,6-dimethyl-1H-imidazo[4,5-c]pyridin-2-yl)-2-methyl-indazole-7-carboxamide] | > 10 | > 10 | 1 to 10 | > 10 | > 10 | > 10 | > 10 | – | – | – | – | – | –
3 | CCNC1CCN(c2ccc(C(=O)Nc3nc4c(C)nc(C)cc4n3C)c3nn(C)cc23)CC1 [Compound 583, 4-[4-(ethylamino)-1-piperidyl]-2-methyl-N-(1,4,6-trimethyl-imidazo[4,5-c]pyridin-2-y1)-indazole-7-carboxamide] | > 10 | 1 to 10 | > 10 | 1 to 10 | 1 to 10 | > 10 | > 10 | – | – | – | – | – | –
4 | C[C@H]1CN(c2ccc(C(=O)Nc3cc(F)c4nn(C)cc4c3)c3nn(C)cc23)C[C@H](C)N1 [Compound 584, 4-[(3S, 5S)-3,5-dimethylpiperazin-1-yl]-N-(7-fluoro-2-methyl-indazol-5-yl)-2-methyl-indazole-7-carboxamide] | < 0.1 | 1 to 10 | 0.1 to 1 | 1 to 10 | 1 to 10 | < 0.1 | < 0.1 | – | – | – | – | – | –
5 | Cc1cn2cc(NC(=O)c3ccc(N4C[C@H](C)N[C@@H](C)C4)c4cn(C)nc34)cc(F)c2n1 [Compound 588, 4-[(3S, 5S)-3,5-dimethylpiperazin-1-yl]-N-(8-fluoro-2-methyl-imidazo[1,2-a]pyridin-6-yl)-2-methyl-indazole-7-carboxamide] | < 0.1 | 1 to 10 | 0.1 to 1 | 1 to 10 | 1 to 10 | < 0.1 | < 0.1 | – | – | – | – | – | –
6 | CNC1CCC(Oc2ccc(C(=O)Nc3cn4cc(C)nc(C)c4n3)c3nn(C)cc23)CC1 (stereo not shown) [Compound 592] | 1 to 10 | 1 to 10 | 1 to 10 | 1 to 10 | 1 to 10 | 1 to 10 | 1 to 10 | – | – | – | – | – | –
7 | CNC1CCCC(Oc2ccc(C(=O)Nc3cn4cc(C)nc(C)c4n3)c3nn(C)cc23)C1 (stereo not shown) [Compound 593] | > 10 | > 10 | > 10 | > 10 | > 10 | > 10 | > 10 | – | – | – | – | – | –
8 | CNC1CCC(Oc2ccc(C(=O)Nc3cn4cc(C)nc(C)c4n3)c3nn(C)cc23)C1 (stereo not shown) [Compound 594] | > 10 | > 10 | > 10 | > 10 | > 10 | > 10 | > 10 | – | – | – | – | – | –
9 | CNC1CCC(Oc2ccc(C(=O)Nc3cc4cn(C)nc4cc3OC)c3nn(C)cc23)CC1 (stereo not shown) [Compound 595] | > 10 | 1 to 10 | 1 to 10 | > 10 | 1 to 10 | > 10 | > 10 | – | – | – | – | – | –
10 | CNC1CCCC(Oc2ccc(C(=O)Nc3cc4cn(C)nc4cc3OC)c3nn(C)cc23)C1 (stereo not shown) [Compound 596] | 1 to 10 | 1 to 10 | 1 to 10 | 1 to 10 | 1 to 10 | 1 to 10 | 1 to 10 | – | – | – | – | – | –
11 | Cc1cc2c(nc(NC(=O)c3ccc(N4CCC(NC5CC5)CC4)c4cn(C)nc34)n2C)c(C)n1 [Compound 597, 4-[4-(cyclopropylamino)-1-piperidyl]-2-methyl-N-(1,4,6-trimethylimidazo[4,5-c]-pyridin-2-yl)indazole-7-carboxamide] | > 10 | > 10 | 1 to 10 | > 10 | > 10 | > 10 | > 10 | – | – | – | – | – | –
12 | COc1nc2nccn2cc1NC(=O)c1ccc(N2CCC(NC3CC3)CC2)c2cn(C)nc12 [Compound 598, 4-[4-(cyclopropylamino)-1-piperidyl]-N-(7-methoxy-imidazo[1,2-a]pyrimidin-6-yl)-2-methyl-indazole-7-carboxamide] | 1 to 10 | > 10 | 1 to 10 | > 10 | > 10 | 1 to 10 | 1 to 10 | – | – | – | – | – | –
13 | Cc1cn2cc(NC(=O)c3ccc(N4CCC(NC5CC5)CC4)c4cn(C)nc34)nc2c(CN(C)C)n1 [Compound 600, 4-(4-(cyclopropylamino)piperidin-1-yl)-N-(8-((dimethylamino)methyl)-6-methylimidazo[1,2-a]pyrazin-2-yl)-2-methyl-2H-indazole-7-carboxamide bis(2,2,2-trifluoroacetate)] | > 10 | > 10 | 1 to 10 | – | – | – | – | > 10 | > 10 | > 10 | > 10 | – | –
14 | Cc1cn2cc(NC(=O)c3ccc(N4CCCC(OC5CNC5)C4)c4cn(C)nc34)nc2c(C)n1 (stereo not shown) [Compound 601] | > 10 | > 10 | > 10 | – | – | – | – | > 10 | > 10 | 1 to 10 | > 10 | – | –
15 | COc1cc2nn(C)cc2cc1NC(=O)c1ccc(N2CCCC(OC3CNC3)C2)c2cn(C)nc12 (stereo not shown) [Compound 602] | > 10 | > 10 | > 10 | – | – | – | – | > 10 | > 10 | > 10 | > 10 | – | –
16 | CNC1CCC(Oc2ccc(C(=O)Nc3cc4cn(C)nc4cc3OC)c3nn(C)cc23)C1 (stereo not shown) [Compound 603] | 0.1 to 1 | 1 to 10 | 1 to 10 | – | – | – | – | 1 to 10 | 1 to 10 | 0.1 to 1 | 0.1 to 1 | – | –
17 | CCNC1CCN(c2ccc(C(=O)Nc3cn4cc(C)nc(C)c4n3)c3nn(C)cc23)CC1C (stereo not shown) [Compound 604] | > 10 | 1 to 10 | 1 to 10 | – | – | – | – | > 10 | 1 to 10 | 1 to 10 | > 10 | – | –
18 | CCNC1CCN(c2ccc(C(=O)Nc3cc4cn(C)nc4cc3OC)c3nn(C)cc23)CC1C (stereo not shown) [Compound 605] | 0.1 to 1 | > 10 | 1 to 10 | – | – | – | – | 1 to 10 | > 10 | 0.1 to 1 | 0.1 to 1 | – | –
19 | COc1nc2nc(C)cn2cc1NC(=O)c1cnc(N2CCC(NC3CC3)CC2)c2cn(C)nc12 [Compound 608, 4-[4-(cyclopropylamino)-1-piperidyl]-N-(7-methoxy-2-methyl-imidazo[1,2-a]-pyrimidin-6-yl)-2-methyl-pyrazolo-[4,3-c]pyridine-7-carboxamide] | – | – | 0.1 to 1 | – | – | – | – | < 0.1 | 0.1 to 1 | < 0.1 | < 0.1 | < 0.1 | 0.1 to 1
20 | Cc1cn2cc(NC(=O)c3cnc(N4CCC(NC5CC5)CC4)c4cn(C)nc34)nc2c(C)n1 [Compound 609, 4-[4-(cyclopropylamino)-1-piperidyl]-N-(6,8-dimethylimidazo [1,2-a]pyrazin-2-yl)-2-methyl-pyrazolo[4,3-c]pyridine-7-carboxamide] | – | – | > 10 | – | – | – | – | > 10 | > 10 | < 0.1 | 0.1 to 1 | 0.1 to 1 | > 10
21 | Cc1cn2cc(NC(=O)c3ccc(NC(=O)c4ncc[nH]4)c4[nH]cnc34)cc(F)c2n1 [Compound 610, 2,2,2-trifluoroacetate] | – | – | > 10 | – | – | – | – | > 10 | > 10 | > 10 | > 10 | > 10 | > 10
22 | CCNC1CCN(c2ccc(C(=O)Nc3cn4cc(C)nc(C)c4n3)c3nc(C)cn23)CC1 [Compound 612, N-(6,8-dimethyl-imidazo-[1,2-a]pyrazin-2-y1)-5-[4-(ethylamino)-1-piperidyl]-2-methyl-imidazo[1,2-a]pyridine-8-carboxamide] | – | – | 1 to 10 | – | – | – | – | > 10 | > 10 | 0.1 to 1 | 0.1 to 1 | 0.1 to 1 | > 10
